Consider 5 molecules from PubChem BioAssay (NCI).

Test systems include KM12 colon; SF-268 CNS; HT29 colon; SK-MEL-28 melanoma; DU-145 prostate; SW-620 colon; NCI/ADR-RES ovarian; HL-60(TB) leukemia; COLO 205 colon; IGROV1 ovarian.
What all share (test): NCI-60 cell line screen, 48 h

The structures appear in SMILES notation.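 Five compound concentrations were applied to cells in 96-well plates for 48 hours; endpoints were derived by simple linear interpolation of the resulting dose-response curve. TGI: concentration producing complete growth inhibition.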 Some results are limits rather than exact numbers.

For the molecule `CC1(c2ccc(Cl)cc2)c2ccccc2C(=O)N1CCCN1C(=O)c2ccccc2C1=O` (stereo not given), the TGI in the assay on KM12 colon is 50.8 µM; in the assay on SF-268 CNS, more than 100 µM; in the assay with HT29 colon, more than 100 µM; with SK-MEL-28 melanoma, more than 100 µM; in the assay with DU-145 prostate it was more than 100 µM; in the assay with SW-620 colon, more than 100 µM. In addition, the TGI in the assay with NCI/ADR-RES ovarian is 76.1 µM; in the assay with HL-60(TB) leukemia, more than 100 µM; in the assay with COLO 205 colon it was 36.2 µM; in the assay with IGROV1 ovarian, 70.4 µM.
Regarding `CC(C)NC(=O)OCCN=C1c2ccccc2C(Br)C(Br)c2ccccc21` (stereo not given), the TGI was 45.8 µM in the assay on KM12 colon; 38.7 µM in the assay with SF-268 CNS; 25 µM in the assay on HT29 colon; 35.1 µM with SK-MEL-28 melanoma; 30 µM with DU-145 prostate; more than 27.3 µM with SW-620 colon. The TGI in the assay on NCI/ADR-RES ovarian worked out at 41.7 µM; in the assay with HL-60(TB) leukemia, 2.6 µM; in the assay on COLO 205 colon, 18.9 µM; with IGROV1 ovarian it was 7.14 µM.
As to `COc1cc2c(cc1OC)C(C1CC1)ON(C)CC2` (stereo not given), the TGI in the assay with KM12 colon, with SF-268 CNS, in the assay on HT29 colon, with SK-MEL-28 melanoma, in the assay on DU-145 prostate and in the assay on SW-620 colon was more than 100 µM each time. Also, the TGI in the assay with NCI/ADR-RES ovarian, in the assay on HL-60(TB) leukemia, with COLO 205 colon and in the assay with IGROV1 ovarian was more than 100 µM throughout.
Turning to `COc1cc2ccc(C(C)NCC#N)cc2cc1OC` (stereo not given), the TGI with KM12 colon, in the assay with SF-268 CNS, in the assay on HT29 colon, with SK-MEL-28 melanoma, with DU-145 prostate and in the assay with SW-620 colon was more than 100 µM in each case. For the same molecule, the TGI in the assay with NCI/ADR-RES ovarian, in the assay with HL-60(TB) leukemia, in the assay on COLO 205 colon and in the assay on IGROV1 ovarian was more than 100 µM each time.
For `CC(=O)N1CN2C(=O)CCC2c2cc(C)ccc21` (stereo not given), the TGI in the assay with KM12 colon, in the assay on SF-268 CNS, in the assay on HT29 colon, in the assay with SK-MEL-28 melanoma, in the assay with DU-145 prostate and with SW-620 colon was more than 100 µM each time. Also, the TGI in the assay on NCI/ADR-RES ovarian, in the assay on HL-60(TB) leukemia, in the assay on COLO 205 colon and with IGROV1 ovarian was more than 100 µM throughout.
